This note sets out measurements from patent US20240400560A1, “BICYCLIC HETEROCYCLIC DERIVATIVE HAVING VIRAL GROWTH INHIBITORY ACTIVITY AND PHARMACEUTICAL COMPOSITION CONTAINING SAME” (Shionogi & Co., Ltd., priority 2021, published 2024).

The subject of one experiment is SARS-CoV-2. Briefly: Inhibitory activity of cytopathic effect (CPE) in HEK293T/ACE2-TMPRSS2 cells. In kind it is cell-based. To be noted: Severe acute respiratory syndrome coronavirus 2, HEK-293T, 72 h; HEK293T/ACE2-TMPRSS2 cells, cultured 3 days, CellTiter-Glo 2.0 luminescence; read-out: EC50 (50% SARS-CoV-2 infected cell death inhibitory concentration). A general note: Damage to the host cells serves as the signal in cytopathic effect assays.

Another experiment deals with SARS-CoV-2 3CL protease (Severe acute respiratory syndrome coronavirus 2, UniProt P0DTD1). The experiment is described as follows: Inhibitory activity test against SARS-CoV-2 3CL proteases. In kind it is biochemical.
Setting [1] is: read-out: IC50 (50% SARS-CoV-2 3CL protease inhibitory concentration).

Structures are written as SMILES. Read-outs that look alike come from different tables or passages of the source.

With `COc1nc(N2CC[C@@H](OC(F)F)C2)cc2c1c(=O)n(-c1cnc3cc(F)ccn13)c(=O)n2-c1ccc(F)c(F)c1` [Compound I-1024], the EC50 in the experiment on SARS-CoV-2 is less than 100 nM. In addition, at SARS-CoV-2 3CL protease (setting [1]), the IC50 is less than 100 nM.

As for `COc1nc(N2CC[C@@H](O)C2)cc2c1c(=O)n(-c1cncc(OCF)c1)c(=O)n2-c1ccc(F)c(F)c1` [Compound I-1025], the EC50 in the experiment with SARS-CoV-2 was less than 100 nM. Moreover, the IC50 on SARS-CoV-2 3CL protease (setting [1]) is less than 100 nM.

Consider `[2H]C([2H])([2H])O[C@@H]1CCN(c2cc3c(c(OC)n2)c(=O)n(-c2cncc(C#N)c2)c(=O)n3-c2ccc(F)c(F)c2)C1` [Compound I-1026], for which the EC50 in the experiment on SARS-CoV-2 is less than 100 nM. Besides, the IC50 on SARS-CoV-2 3CL protease (setting [1]) is less than 100 nM.

`COc1nc(N2CC[C@@H](O)C2)cc2c1c(=O)n(-c1cncc(C#N)c1)c(=O)n2-c1ccc(F)c(F)c1` [Compound I-1027]: the EC50 in the experiment on SARS-CoV-2 was less than 100 nM. The IC50 at SARS-CoV-2 3CL protease (setting [1]) was less than 100 nM.

For the compound `[2H]C([2H])([2H])O[C@@H]1CCN(c2cc3c(c(OC)n2)c(=O)n(-c2cncc(F)c2)c(=O)n3-c2ccc(F)c(F)c2)C1` [Compound I-1028], in the experiment on SARS-CoV-2, the EC50 is less than 100 nM. Moreover, on SARS-CoV-2 3CL protease (setting [1]), the IC50 is less than 100 nM.

Consider `COc1nc(NC2CC2)cc2c1c(=O)n(-c1cnc3cc(F)ccn13)c(=O)n2-c1ccc(F)c(Cl)c1` [Compound I-1029], for which the EC50 in the experiment with SARS-CoV-2 is less than 100 nM. In addition, the IC50 at SARS-CoV-2 3CL protease (setting [1]) is less than 100 nM.

Regarding `COc1nc(N2C[C@@H]3C[C@H]2CO3)cc2c1c(=O)n(-c1cncc(F)c1)c(=O)n2-c1ccc(F)c(F)c1` [Compound I-1030], the EC50 with SARS-CoV-2 was less than 100 nM. Moreover, the IC50 on SARS-CoV-2 3CL protease (setting [1]) is less than 100 nM.

Take `COc1nc(N2CC[C@@H](NC(C)=O)C2)cc2c1c(=O)n(-c1cnc3cc(F)ccn13)c(=O)n2-c1ccc(F)c(Cl)c1` [Compound I-1031]: in the experiment with SARS-CoV-2, the EC50 was 100 to 1000 nM. Moreover, the IC50 at SARS-CoV-2 3CL protease (setting [1]) was less than 100 nM.

As for `CCc1cc2c(c(OC)n1)c(=O)n(-c1cnc3cc(F)ccn13)c(=O)n2-c1ccc(F)c(Cl)c1` [Compound I-1032], the EC50 with SARS-CoV-2 was less than 100 nM. For the same compound, the IC50 at SARS-CoV-2 3CL protease (setting [1]) was less than 100 nM.

Take `COC[C@@H]1CCN(c2cc3c(c(OC)n2)c(=O)n(-c2cnc4cc(F)ccn24)c(=O)n3-c2ccc(F)c(Cl)c2)C1` [Compound I-1033]: in the experiment on SARS-CoV-2, the EC50 is less than 100 nM. Also, the IC50 at SARS-CoV-2 3CL protease (setting [1]) is less than 100 nM.

With `COc1nc(N(C)C(C)C)cc2c1c(=O)n(-c1cnc3cc(F)ccn13)c(=O)n2-c1ccc(F)c(Cl)c1` [Compound I-1034], the EC50 with SARS-CoV-2 is less than 100 nM. In addition, the IC50 at SARS-CoV-2 3CL protease (setting [1]) was less than 100 nM.

Take `COc1nc(N2CC(F)(F)C2)cc2c1c(=O)n(-c1cnc3cc(F)ccn13)c(=O)n2-c1ccc(F)c(Cl)c1` [Compound I-1035]: the EC50 in the experiment with SARS-CoV-2 was less than 100 nM. Besides, the IC50 against SARS-CoV-2 3CL protease (IC50 (50% SARS-CoV-2 3CL protease inhibitory concentration)) was less than 100 nM.

In the case of `COc1nc(N2CCC(O)(C(F)F)C2)cc2c1c(=O)n(-c1cncc(Cl)c1)c(=O)n2-c1ccc(F)c(Cl)c1` (centres unmarked) [Compound I-1036], the EC50 with SARS-CoV-2 is less than 100 nM. For the same compound, at SARS-CoV-2 3CL protease (setting [1]), the IC50 was less than 100 nM.

With `COc1nc(N2CCC(O)(CF)C2)cc2c1c(=O)n(-c1cnc3cc(F)ccn13)c(=O)n2-c1ccc(F)c(Cl)c1` (centres unmarked) [Compound I-1037], the EC50 in the experiment on SARS-CoV-2 was less than 100 nM. On SARS-CoV-2 3CL protease (setting [1]), the IC50 was less than 100 nM.

As to `[2H]C([2H])([2H])O[C@@H]1CCN(c2cc3c(c(OC)n2)c(=O)n(-c2cncc(OC(F)F)c2)c(=O)n3-c2ccc(F)c(F)c2)C1` [Compound I-1038], in the experiment on SARS-CoV-2, the EC50 was less than 100 nM. Further, the IC50 on SARS-CoV-2 3CL protease (setting [1]) is less than 100 nM.

With `COc1nc(N2CCC3(COC3)C2)cc2c1c(=O)n(-c1cnc3cc(F)ccn13)c(=O)n2-c1ccc(F)c(Cl)c1` [Compound I-1039], the EC50 in the experiment with SARS-CoV-2 was less than 100 nM. For the same compound, on SARS-CoV-2 3CL protease (setting [1]), the IC50 was less than 100 nM.

Consider `COc1nc(N2CC[C@@H](O)C2)cc2c1c(=O)n(-c1cncc(OC(F)F)c1)c(=O)n2-c1ccc(F)c(F)c1` [Compound I-1040], for which, in the experiment with SARS-CoV-2, the EC50 is less than 100 nM. For the same compound, the IC50 at SARS-CoV-2 3CL protease (setting [1]) was less than 100 nM.

Regarding `COc1nc(NCC(F)(F)F)cc2c1c(=O)n(-c1cnc3cc(F)ccn13)c(=O)n2-c1ccc(F)c(Cl)c1` [Compound I-1041], in the experiment with SARS-CoV-2, the EC50 was less than 100 nM. The IC50 at SARS-CoV-2 3CL protease (setting [1]) is less than 100 nM.

`CNc1cc2c(c(OC)n1)c(=O)n(-c1cnc3cc(F)ccn13)c(=O)n2-c1ccc(F)c(Cl)c1` [Compound I-1042]: the EC50 with SARS-CoV-2 is less than 100 nM. In addition, the IC50 at SARS-CoV-2 3CL protease (setting [1]) was less than 100 nM.

Consider `COc1nc(N2CCC(C)(O)C2)cc2c1c(=O)n(-c1cnc3cc(F)ccn13)c(=O)n2-c1ccc(F)c(Cl)c1` (centres unmarked) [Compound I-1043], for which, in the experiment with SARS-CoV-2, the EC50 is less than 100 nM. Besides, the IC50 at SARS-CoV-2 3CL protease (setting [1]) was less than 100 nM.

Turning to `COc1nc(N2CC[C@@H](O)C2)cc2c1c(=O)n(-c1cncc(F)c1)c(=O)n2-c1ccc(F)c(F)c1` [Compound I-1044], the EC50 in the experiment on SARS-CoV-2 is less than 100 nM. Also, the IC50 on SARS-CoV-2 3CL protease (setting [1]) was less than 100 nM.

With `COc1nc(N2CC[C@@H](C(=O)N(C)C)C2)cc2c1c(=O)n(-c1cnc3cc(F)ccn13)c(=O)n2-c1ccc(F)c(Cl)c1` [Compound I-1045], the EC50 in the experiment with SARS-CoV-2 is less than 100 nM. The IC50 on SARS-CoV-2 3CL protease (setting [1]) is less than 100 nM.
